From patent publication US20030144477A1, “Immunodominant acetylcholine receptor alpha subunit peptide: MHC complexes” (Corixa Corporation, priority 2001, published 2003)
Peptide text beside a SMILES is read from it.

How the values were obtained:
[1] = system: HLA-DR3 (a mix of DRB1*0301 and DRB3*0101); assay: DELFIA competitive binding assay against biotinylated MBP 84-102, solubilized HLA-DR3; design: species or system human; details: for affinity for HLA-DR3: in words, from IC50; for IC50: competitive binding to solubilized HLA-DR3, pH 5.5, vs biotinylated MBP 84-102
Text: (§1) Important peptides in MG can be identified, for example, by screening a set of overlapping AChR peptides for binding to HLA-DR2 and HLA-DR3. The binding affinity of a peptide to the MHC compound can be measured using a variety of binding assays known to those of skill in the art. An example of suitable binding assay is the europium-based competitive binding assay (see, e.g., Tompkins et al. (1993) J. Immunol. Methods 163:209-216). Additionally, the capacity of the peptides of the invention to induce a T cell response can be determined using a variety of standard methods, known to those of skill in the art, as described below.
(§2) A set of 68 overlapping AChRα peptides (14 mer with 7 amino acids overlapping) was tested by dissociation-enhanced lenthanide fluoroimmunoassay (“DELFIA”) competitive binding assay for their relative affinity to […]. […] The sequence of the AChRα subunit is shown with each of the transmembrane regions (M1-M4) indicated by a shaded box.) Ten-fold dilutions (preferably 1-100,000 nM) of unlabeled AChRα peptides were co-incubated at pH 5.5 with the biotinylated myelin basic protein peptide MBP 84-102, and the IC50 of binding to solubilized HLA-DR2 (a mix of DRB1*1501 and DRB5*0101) or HLA-DR3 (a mix of DRB1*0301 and DRB3*0101) was measured. Measurement of the IC50 is preferably done by europium-streptavidin dissociation-enhanced lenthanide fluoroimmunoassay (DELFIA) and the IC50 typically calculated by four parameter fit analysis with the software program SOFTmax Pro. FIG. 2 lists the IC50s of each AChRα peptide binding to HLA-DR2 and HLA-DR3.

HLA-DR1 = assay: DELFIA europium-based competitive binding assay, HLA-DR1; design: species or system human; details: competitive binding to HLA-DR1
HLA-DR2 = assay: IC50
Text: Table printed on a drawing sheet, FIGURE 4
The best fit of AChRα peptide sequences to published HLA-DR2 motifs is indicated along with the IC50 value.
First copying reader's note: Sequences are printed with horizontal offsets as a motif alignment; the offsets are not reproduced in the grid.

[2] = target: solubilized HLA-DR2 (a mix of DRB1*1501 and DRB5*0101) (Homo sapiens, UniProt P01903+P01911+Q30154); assay: DELFIA competitive binding assay against biotinylated MBP 84-102, solubilized HLA-DR2; details: for relative affinity for HLA-DR2: in words, from IC50 / 1/IC50 plot
Text: as §1
A set of 68 overlapping AChRα peptides (14 mer with 7 amino acids overlapping) was tested by dissociation-enhanced lenthanide fluoroimmunoassay (“DELFIA”) competitive binding assay for their relative affinity to HLA-DR4. […] Measurement of the IC50 is preferably done by europium-streptavidin dissociation-enhanced lenthanide fluoroimmunoassay (DELFIA) and the IC50 typically calculated by four parameter fit analysis with the software program SOFTmax Pro.

[3] = target: solubilized DR4 (HLA-DR4); assay: europium-based competitive binding assay using solubilized DR4; design: species or system human; details: competitive binding to solubilized DR4
Description: as §2
In addition, the relative affinity for HLA-DR4 of a set of sixty nine synthetic overlapping peptides of AchRα (14 mer with 7 amino acids overlapping) was measured by a europium-based competitive binding assay using solubilized DR4. The concentration of AchR peptides required to inhibit 50% binding of a known DR4 binding peptide was calculated for each peptide. High affinity peptides were identified based on their IC50 value.

[4] = system: PBMCs from MG patients and normal healthy individuals; assay: modified ELISPOT assay of T cell reactivity (γ-IFN spots, reactive index); type: cell-based, human; details: reactive index above two; HLA type ignored; 9 MG patients vs 30 normals
Text: In addition, a modified ELISPOT assay, termed the Clonal Expansion ELISA-Spot (or CEE-SPOT) assay can also be used in the context of the present invention. In the CEE-SPOT assay, PBMCs are stimulated with antigen for an appropriate amount of time (e.g., 7 days) to promote proliferation of the antigen-specific T cells prior to re-stimulation and lymphokine capture (e.g., on day 10). […] The production of lymphokines can be measured using this assay, including, e.g., IL-2, IL-4, etc. Typically, lymphokine is captured on a filter, preferably a PVDF filter to improve the background and intensity of the spots. Spot counting is typically carried out using videocamera imaging and computer analysis. This type of assay can also be used to identify epitopes derived from natural processing, by first stimulating T cells with the whole protein and then re-stimulating them with peptides derived from the protein.
T cell reactivity of the above peptides to patient and normal healthy individual PBMCs was measured by modified ELISPOT assay. PBMCs obtained from 30 normals and 9 MG patients were included in this study. The above peptides along with TT/PPD as positive control and media as negative control were tested for T cell reactivity. […] Antigen specific cell stimulation profile for each antigen was measured by the secretion of γ-IFN detected as spots using a pair of anti-γIFN antibodies set. […]

In the case of DTPYLDITYHFVMQRLPL [AChRα 195-212], the “affinity for HLA-DR3” value [1] is reported as “high affinity”.
In the case of CC(C)C[C@H](NC(=O)[C@H](CCCCN)NC(=O)[C@H](C)NC(=O)[C@@H](NC(=O)[C@@H](N)CC(C)C)C(C)C)C(=O)N[C@@H](Cc1ccccc1)C(=O)N[C@@H](CCCCN)C(=O)N[C@@H](CC(=O)O)C(=O)N[C@@H](Cc1ccc(O)cc1)C(=O)N[C@@H](CO)C(=O)N[C@@H](CO)C(=O)N[C@H](C(=O)N[C@H](C(=O)N[C@@H](CCCNC(=N)N)C(=O)N1CCC[C@H]1C(=O)N[C@H](C(=O)O)C(C)C)C(C)C)C(C)C [AChRα 7-22], the IC50 [1] is reported as 6.15 µM, the “affinity for HLA-DR3” value [1] is reported as “high affinity” and the IC50 (HLA-DR1) is reported as > 100 µM.
Compound “V I I P C L L F S F L T G L (VIIPCLLFSFLTGL) [AChRα 218-231]” has an IC50 (HLA-DR2) of 6.79 µM.
“I P N I M F F S T M K R P S R E K Q (IPNIMFFSTMKRPSREKQ) [AChRα 320-337]” showed an IC50 (HLA-DR2) of 6.61 µM.
For “NWVRKVFIDTIPNIMFFS [AChRα 310-327, AChRα subunit peptide fragment, residues 310-327]”, the “relative affinity for HLA-DR2” value [2] was “high relative affinity”.
Work on “V E V T V G L Q L I Q L I N (VEVTVGLQLIQLIN) [AChRα 27-42]” yielded an IC50 (HLA-DR2) of 9.18 µM.
CC[C@H](C)[C@H](NC(=O)[C@H](Cc1ccccc1)NC(=O)[C@H](Cc1ccc(O)cc1)NC(=O)[C@H](CC(C)C)NC(=O)[C@@H]1CCCN1C(=O)[C@H](CC(C)C)NC(=O)[C@H](CCCNC(=N)N)NC(=O)[C@H](CCC(N)=O)NC(=O)[C@H](CCSC)NC(=O)[C@@H](NC(=O)[C@H](Cc1ccccc1)NC(=O)[C@@H](N)Cc1c[nH]cn1)C(C)C)C(=O)N[C@H](C(=O)N[C@@H](CC(N)=O)C(=O)O)C(C)C [AChRα 204-217] showed an IC50 [1] of 71.3 µM and an IC50 (HLA-DR1) of 1.75 µM.
In the case of “TGHITWTPPAIFKS [AChRα 113-126, AChRα subunit peptide fragment, residues 113-126] [listing 1 of 2 here]”, the IC50 (HLA-DR2) is reported as 2.83 µM.
For MKLGTWTYDGSVVAINPESD [AChRα 144-163], the “affinity for HLA-DR3” value [1] was “high affinity”.
In the case of CC[C@H](C)[C@H](NC(=O)[C@H](CCC(N)=O)NC(=O)[C@H](CC(N)=O)NC(=O)[C@@H](NC(=O)[C@H](CCC(=O)O)NC(=O)[C@H](CC(=O)O)NC(=O)[C@@H](NC(=O)[C@H](CC(N)=O)NC(=O)[C@@H](NC(=O)[C@H](CC(C)C)NC(=O)[C@H](CCC(N)=O)NC(=O)[C@@H](NC(=O)[C@H](CC(C)C)NC(=O)[C@@H](N)CCC(N)=O)[C@@H](C)CC)[C@@H](C)CC)C(C)C)C(C)C)C(=O)O [AChRα 36-49] (H-QLIQLINVDEVNQI-OH; N-terminus and C-terminus assumed), the IC50 [1] is reported as 7.3 µM, the “affinity for HLA-DR3” value [1] is reported as “high affinity” and the IC50 ([2]; competitive binding to solubilized HLA-DR2, pH 5.5, vs biotinylated MBP 84-102) is reported as 11 µM. For the same compound, the IC50 [3] was 3.63 µM, the “per cent of patients that show reactivity compared with per cent of normal healthy individuals” value [4] was “approximately twice” and the IC50 (HLA-DR1) was 11.2 µM.
“TGHITWTPPAIFKS [AChRα 113-126, AChRα subunit peptide fragment, residues 113-126] [listing 2 of 2 here]” was tested, and the “relative affinity for HLA-DR2” value [2] was “high relative affinity”.
